# Test results from patent US20210046106A1, “METHODS OF TREATING CANCER WITH ANDROGEN DEPRIVATION THERAPY IN COMBINATION WITH AN INHIBITOR OF THE SP1 TRANSCRIPTION FACTOR” (The Board of Trustees of the Leland Stanford Junior …, priority 2019, published 2021).
# “And” between values parts separate entries of the source, which are not always exact repeats. Equal entries are not always repeated. “Also recorded” adds a separate entry of the source.
# Assay: Phase 1 trial of sodium selenite with palliative radiation therapy: adverse events / toxicity
# Text: Patients: This study was approved by the Food and Drug Administration (IND 122151), the Stanford University Internal Review Board, and the Scientific Review Committee for the Stanford Cancer Institute. […] The study was initially open only to prostate cancer patients, but then expanded to include a variety of tumor types. […] Before study entry, patients had to meet a number of eligibility criteria. Inclusion criteria included a) histologically-confirmed solid tumor malignancy with confirmation of metastasis, multiple myeloma, or plasmacytoma, b) need for palliative radiation therapy, c) for prostate cancer patients, PSA at least 2 ng/mL, except for patients who had recently started androgen deprivation therapy with PSA less than 2 ng/mL, d) […], e) life expectancy greater than 3 months, f) Eastern Cooperative Oncology Group (ECOG) performance status of zero or one or Karnofsky performance status 80%, and g) QT interval corrected using Fridericia's method (QTcF) <460 msec.
# Patients were treated in groups of three with each receiving the same dose. […] Dose escalation was to proceed as follows: a) if none of the three patients experienced a dose limiting toxicity (DLT), dose escalation to the next dose level would occur, b) if one of three patients treated at that dose level experienced a DLT, that dose level would be expanded to six subjects; if no additional patient in that cohort experienced a DLT, dose escalation to the next dose level would occur, c) if two patients in a cohort experienced a DLT, dose escalation would stop and the prior dose would be considered the maximum tolerated dose (MTD). At that point the MTD was to be expanded to a total of six patients.
# Baseline evaluations included EKG, PSA for prostate cancer patients, CBC with differential, CMP, LDH, bone scan (BS), or CT, PET/CT or MRI as clinically indicated to monitor response to therapy. Palliative radiation therapy utilized standard of care palliative dose/fractionation regimens. On Week 1, Day 1 patients underwent physical exam (PE), laboratory studies as above and EKG. All patients completed a pain inventory, the Brief Pain Inventory, prior to therapy. […] Weekly, during radiation therapy, patients had vital signs performed, with assessment of adverse events (AEs), labs and EKG if clinically indicated. The pain inventory was completed again on the last day of radiation therapy. Following completion of therapy, the first follow-up visit was within 2-3 months +/−2 weeks, with subsequent follow-up visits optional until progression of disease at the site of radiation. […] They also completed another pain inventory.
# [1] = 33 mg cohort, count-attribution
smiles,measurement,setting,value
"O=[Se](O)O [sodium selenite, Sodium selenite pentahydrate]",Abdominal pain grade 1: Number of Occurrences,33 mg cohort,3
same,Abdominal pain grade 1: Number of Subjects Affected,33 mg cohort,3
same,Anemia grade 3: Number of Occurrences,33 mg cohort,1
same,Anemia grade 3: Number of Subjects Affected,33 mg cohort,1
same,Anemia grade 3: Relation to Selenite,33 mg cohort,Unrelated
same,Back Pain grade 1: Number of Occurrences,33 mg cohort,1
same,Back Pain grade 1: Number of Subjects Affected,33 mg cohort,1
same,Back Pain grade 1: Relation to Selenite,33 mg cohort,Unrelated
same,Bone Pain grade 1: Number of Occurrences,33 mg cohort,1
same,Bone Pain grade 1: Number of Subjects Affected,33 mg cohort,1
same,Bone Pain grade 1: Relation to Selenite,33 mg cohort,Unrelated
same,Diarrhea grade 1: Number of Occurrences,33 mg cohort,5
same,Diarrhea grade 1: Number of Subjects Affected,33 mg cohort,4
same,Dizziness grade 1: Number of Occurrences,33 mg cohort,1
same,Dizziness grade 1: Number of Subjects Affected,33 mg cohort,1
same,Dizziness grade 1: Relation to Selenite,33 mg cohort,Probable
same,Dysphagia grade 1: Number of Occurrences,33 mg cohort,1
same,Dysphagia grade 1: Number of Subjects Affected,33 mg cohort,1
same,Dysphagia grade 1: Relation to Selenite,33 mg cohort,Unrelated
same,Dyspnea grade 1: Number of Occurrences,33 mg cohort,1
same,Dyspnea grade 1: Number of Subjects Affected,33 mg cohort,1
same,Dyspnea grade 1: Relation to Selenite,33 mg cohort,Unrelated
same,Dyspnea grade 2: Number of Occurrences,33 mg cohort,1
same,Dyspnea grade 2: Number of Subjects Affected,33 mg cohort,1
same,Dyspnea grade 2: Relation to Selenite,33 mg cohort,Unrelated
same,ECG QTcF Prolonged grade 1: Number of Occurrences,33 mg cohort,2
same,ECG QTcF Prolonged grade 1: Number of Subjects Affected,33 mg cohort,2
same,ECG QTcF Prolonged grade 1: Relation to Selenite,33 mg cohort,Probable
same,Facial Pain grade 1: Number of Occurrences,33 mg cohort,1
same,Facial Pain grade 1: Number of Subjects Affected,33 mg cohort,1
same,Facial Pain grade 1: Relation to Selenite,33 mg cohort,Unrelated
same,Fall (Mechanical) grade 2: Number of Occurrences,33 mg cohort,2
same,Fall (Mechanical) grade 2: Number of Subjects Affected,33 mg cohort,1
same,Fall (Mechanical) grade 2: Relation to Selenite,33 mg cohort,Unrelated
same,Fatigue grade 1: Number of Occurrences,33 mg cohort,2
same,Fatigue grade 1: Number of Subjects Affected,33 mg cohort,2
same,Fatigue grade 1: Relation to Selenite,33 mg cohort,Possible
same,Fatigue grade 2: Number of Occurrences,33 mg cohort,2
same,Fatigue grade 2: Number of Subjects Affected,33 mg cohort,1
same,Fatigue grade 2: Relation to Selenite,33 mg cohort,"Unrelated,; also recorded: Possible"
same,Flu-like Symptoms grade 1: Number of Occurrences,33 mg cohort,2
same,Flu-like Symptoms grade 1: Number of Subjects Affected,33 mg cohort,1
same,Flu-like Symptoms grade 1: Relation to Selenite,33 mg cohort,Unrelated
same,Nausea grade 1: Number of Occurrences,33 mg cohort,8
same,Nausea grade 1: Number of Subjects Affected,33 mg cohort,5
same,Nausea grade 2: Number of Occurrences,33 mg cohort,1
same,Nausea grade 2: Number of Subjects Affected,33 mg cohort,1
same,Paresthesia grade 1: Number of Occurrences,33 mg cohort,1
same,Paresthesia grade 1: Number of Subjects Affected,33 mg cohort,1
same,Paresthesia grade 1: Relation to Selenite,33 mg cohort,Unrelated
same,Sore Throat grade 1: Number of Occurrences,33 mg cohort,1
same,Sore Throat grade 1: Number of Subjects Affected,33 mg cohort,1
same,Sore Throat grade 1: Relation to Selenite,33 mg cohort,Unrelated
same,Upper Respiratory Infection grade 1: Number of Occurrences,33 mg cohort,1
same,Upper Respiratory Infection grade 1: Number of Subjects Affected,33 mg cohort,1
same,Upper Respiratory Infection grade 1: Relation to Selenite,33 mg cohort,Unrelated
same,Vomiting grade 1: Number of Occurrences,33 mg cohort,6
same,Vomiting grade 1: Number of Subjects Affected,33 mg cohort,2
same,Vomiting grade 2: Number of Occurrences,33 mg cohort,1
same,Vomiting grade 2: Number of Subjects Affected,33 mg cohort,1
same,Vomiting grade 2: Relation to Selenite,33 mg cohort,Probable
same,Abdominal pain grade 1: Relation to Selenite,[1],"1-Possible, and 2-Probably"
same,Diarrhea grade 1: Relation to Selenite,[1],"2-Possible, and 3-Probable"
same,Vomiting grade 1: Relation to Selenite,[1],"4-Probable, and 2-Unlikely"
same,Nausea grade 1: Relation to Selenite,"33 mg cohort, printed 7-Probable, 1-Unrelated over four lines","Probable,; also recorded: Unrelated"
same,Nausea grade 2: Relation to Selenite,"33 mg cohort, printed Probable/Definite over two lines",Probable/; also recorded: Definite
same,primary toxicities,33 mg dose level,grade 1 GI side effects
same,QT prolongation,"33 mg dose level, ECG review",grade 1 QT prolongation in 2 patients; also recorded: two patients had grade 1 ECG QTcF prolongations; also recorded: within the range of expected intra-subject variability
same,primary toxicities,"33 mg dose level, listed as selenite",grade 1 GI side effects; also recorded: grade 1 GI toxicities
same,Back Pain grade 2: Number of Occurrences,49.5 mg cohort,1
same,Back Pain grade 2: Number of Subjects Affected,49.5 mg cohort,1
same,Back Pain grade 2: Relation to Selenite,49.5 mg cohort,Unrelated
same,Diarrhea grade 2: Number of Occurrences,49.5 mg cohort,1
same,Diarrhea grade 2: Number of Subjects Affected,49.5 mg cohort,1
same,Diarrhea grade 2: Relation to Selenite,49.5 mg cohort,Possible
same,Fatigue grade 1: Number of Occurrences,49.5 mg cohort,1
same,Fatigue grade 1: Number of Subjects Affected,49.5 mg cohort,1
same,Fatigue grade 1: Relation to Selenite,49.5 mg cohort,Possible
same,Nausea grade 1: Number of Occurrences,49.5 mg cohort,1
same,Nausea grade 1: Number of Subjects Affected,49.5 mg cohort,1
same,Nausea grade 1: Relation to Selenite,49.5 mg cohort,Probable
same,Nausea grade 2: Number of Occurrences,49.5 mg cohort,1
same,Nausea grade 2: Number of Subjects Affected,49.5 mg cohort,1
same,Nausea grade 2: Relation to Selenite,49.5 mg cohort,Probable
same,Pain in Extremity grade 2: Number of Occurrences,49.5 mg cohort,1
same,Pain in Extremity grade 2: Number of Subjects Affected,49.5 mg cohort,1
same,Pain in Extremity grade 2: Relation to Selenite,49.5 mg cohort,Unrelated
same,Vomiting grade 1: Number of Occurrences,49.5 mg cohort,1
same,Vomiting grade 1: Number of Subjects Affected,49.5 mg cohort,1
same,Vomiting grade 1: Relation to Selenite,49.5 mg cohort,Probable
same,Vomiting grade 2: Number of Occurrences,49.5 mg cohort,1
same,Vomiting grade 2: Number of Subjects Affected,49.5 mg cohort,1
same,Vomiting grade 2: Relation to Selenite,49.5 mg cohort,Probable
same,toxicity in the one patient at 49.5 mg,"49.5 mg dose level, 1 patient","grade 2 nausea/vomiting and diarrhea; also recorded: grade 2 GI toxicity; also recorded: grade 2 diarrhea, nausea and vomiting"
same,toxicity / adverse events attributable to selenite,"5.5, 11 and 16.5 mg dose levels, oral 2 h before RT",no toxicity attributable to selenite; also recorded: no adverse events attributable to selenite; also recorded: no AEs attributable to the selenite
same,toxicities at all other dose levels,33 and 49.5 mg dose levels,grade 1 and 2 GI toxicities
same,maximum tolerated dose (MTD),doses 5.5 to 49.5 mg po/day with RT,not reached
same,highest acceptable / reasonably well tolerated dose,"oral once daily with RT, ondansetron prn",33 mg
